Changes are numbered by the printed parent chain.
Experiments:
Design in all cases: WT (1–553); expressed in transfected cells
GLP-2R K231^2.67A = target: T1, GLP-2R K231^2.67A (Homo sapiens, UniProt O95838, K231A); test: radioligand competition binding, K231^2.67A; details: COS-7, K231^2.67A; [^125I]GLP-2(1–33, M10Y) 10–15 pM, 4 h, 4 °C; n ≥ 3 in duplicate
T1 sequence (O95838 1-553 K231A): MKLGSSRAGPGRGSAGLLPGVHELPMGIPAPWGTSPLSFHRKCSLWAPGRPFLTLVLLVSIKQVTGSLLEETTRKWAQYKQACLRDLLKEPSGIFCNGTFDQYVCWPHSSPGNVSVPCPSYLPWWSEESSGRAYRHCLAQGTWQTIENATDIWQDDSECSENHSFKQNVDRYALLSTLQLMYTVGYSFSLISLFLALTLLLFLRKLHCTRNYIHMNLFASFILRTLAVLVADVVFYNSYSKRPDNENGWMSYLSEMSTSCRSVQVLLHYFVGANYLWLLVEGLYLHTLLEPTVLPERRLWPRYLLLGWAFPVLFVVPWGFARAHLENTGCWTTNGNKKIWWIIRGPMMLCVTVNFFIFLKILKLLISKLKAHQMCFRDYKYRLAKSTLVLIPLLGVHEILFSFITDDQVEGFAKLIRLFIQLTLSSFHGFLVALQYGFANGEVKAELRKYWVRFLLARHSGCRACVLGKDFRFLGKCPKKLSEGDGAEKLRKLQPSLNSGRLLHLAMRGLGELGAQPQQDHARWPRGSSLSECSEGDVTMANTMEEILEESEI
Description: (§1) A stepwise oxidation reaction was performed by addition of 6 aliquots of 5 µL ChloramineT (30 µL/mL) with a 1-min interval during constant stirring. The reaction was terminated by the addition of 400 µL phase A (0.1% trifluoracetic acid) before being fractionated into 1 mL volume by reverse-phase high-performance liquid chromatography (RP-HPLC, Waters 600 SimiPrep system) on a C18 column. The iodinated protein was […] by increasing concentrations of phase B (Acetonitrile + 0.1% TFA) and tested for competitive binding ability.
(§2) One day before transfection, the COS-7 cells were seeded in 75 cm^2 culture flasks (3 million cells/flask) in DMEM, containing 3.9 g/L NaHCO3 and supplemented with 10% FBS, 1% L-glutamine, 180 units/mL penicillin and 45 µg/mL streptomycin. After an overnight culture at 37 °C, 10% CO2 and 95% air humidity, the cells were transiently transfected with different GLP-2R constructs or pcDNA3.1 vector as previously described.[52] Following 24-h incubation, the cells were transferred to Costa® microtiter plates (150,000 cells/well, PerkinElmer) to achieve a 5%–10% specific binding. […] The cells were then washed twice in binding buffer (4 °C), lysed and counted for radioactivity using a Wallac Gamma Counter (PerkinElmer).

GLP-2R R242^ECL1E = target: T2, GLP-2R R242^ECL1E (Homo sapiens, UniProt O95838, R242E); test: radioligand competition binding, R242^ECL1E; details: COS-7, R242^ECL1E; [^125I]GLP-2(1–33, M10Y) 10–15 pM, 4 h, 4 °C; n ≥ 3 in duplicate
T2 sequence (O95838 1-553 R242E): T1 sequence (O95838 1-553 K231A) with A231K, R242E
Description: as §1, §2

GLP-2R R242^ECL1A = target: T3, GLP-2R R242^ECL1A (Homo sapiens, UniProt O95838, R242A); test: radioligand competition binding, R242^ECL1A; details: COS-7, R242^ECL1A; [^125I]GLP-2(1–33, M10Y) 10–15 pM, 4 h, 4 °C; mean ± SEM, n ≥ 3 in duplicate
T3 sequence (O95838 1-553 R242A): T1 sequence (O95838 1-553 K231A) with A231K, R242A
Description: as §1, §2

| SMILES | % Binding of WT (GLP-2R K231^2.67A) | % Binding of WT (GLP-2R R242^ECL1E) | % Binding of WT (GLP-2R R242^ECL1A) |
| --- | --- | --- | --- |
| CC[C@H](C)[C@H](NC(=O)[C@H](Cc1ccccc1)NC(=O)[C@H](CC(=O)O)NC(=O)[C@H](CCCNC(=N)N)NC(=O)[C@H](C)NC(=O)[C@H](C)NC(=O)[C@H](CC(C)C)NC(=O)[C@H](CC(N)=O)NC(=O)[C@H](CC(=O)O)NC(=O)[C@H](CC(C)C)NC(=O)[C@@H](NC(=O)[C@@H](NC(=O)[C@H](CC(N)=O)NC(=O)[C@H](CCSC)NC(=O)[C@H](CCC(=O)O)NC(=O)[C@H](CC(=O)O)NC(=O)[C@H](CO)NC(=O)[C@H](Cc1ccccc1)NC(=O)[C@H](CO)NC(=O)CNC(=O)[C@H](CC(=O)O)NC(=O)[C@H](C)NC(=O)[C@@H](N)Cc1c[nH]cn1)[C@@H](C)O)[C@@H](C)CC)C(=O)N[C@@H](CC(N)=O)C(=O)N[C@@H](Cc1c[nH]c2ccccc12)C(=O)N[C@@H](CC(C)C)C(=O)N[C@H](C(=O)N[C@@H](CCC(N)=O)C(=O)N[C@H](C(=O)N[C@@H](CCCCN)C(=O)N[C@H](C(=O)N[C@H](C(=O)N[C@@H](CC(=O)O)C(=O)O)[C@@H](C)O)[C@@H](C)CC)[C@@H](C)O)[C@@H](C)CC [Human GLP-2 (1–33)] | N.B. | N.B. | 4.2 ± 0.6 % |
| CC[C@H](C)[C@H](NC(=O)[C@H](Cc1ccccc1)NC(=O)[C@H](CC(=O)O)NC(=O)[C@H](CCCNC(=N)N)NC(=O)[C@H](C)NC(=O)[C@H](C)NC(=O)[C@H](CC(C)C)NC(=O)[C@H](CC(N)=O)NC(=O)[C@H](CC(=O)O)NC(=O)[C@H](CC(C)C)NC(=O)[C@@H](NC(=O)[C@@H](NC(=O)[C@H](CC(N)=O)NC(=O)[C@H](CCSC)NC(=O)[C@H](CCC(=O)O)NC(=O)[C@H](CC(=O)O)NC(=O)[C@H](CO)NC(=O)[C@H](Cc1ccccc1)NC(=O)[C@H](CO)NC(=O)CNC(=O)[C@H](CC(=O)O)NC(=O)CNC(=O)[C@@H](N)Cc1c[nH]cn1)[C@@H](C)O)[C@@H](C)CC)C(=O)N[C@@H](CC(N)=O)C(=O)N[C@@H](Cc1c[nH]c2ccccc12)C(=O)N[C@@H](CC(C)C)C(=O)N[C@H](C(=O)N[C@@H](CCC(N)=O)C(=O)N[C@H](C(=O)N[C@@H](CCCCN)C(=O)N[C@H](C(=O)N[C@H](C(=O)N[C@@H](CC(=O)O)C(=O)O)[C@@H](C)O)[C@@H](C)CC)[C@@H](C)O)[C@@H](C)CC [Teduglutide] | N.B. | N.B. | 5.1 ± 1.5 % |

Reference: publication PMC7785020, “A unique hormonal recognition feature of the human glucagon-like peptide-2 receptor” (Cell Research, 2020)
